Nine compounds from patent publication US10004701B2, “Methods and compositions for treating infection” (UNIVERSITY OF ROCHESTER, priority 2012, dated 2018) can be followed below.

Experiment in all cases: AK assay 384-well format, Prestwick library screening
Test [1] concerns A. baumannii strain 98-37-09. In kind it is cell-based, Acinetobacter baumannii. The settings on record: 50 μM final drug concentration; for fold induction at 50 µM: Acinetobacter baumannii, 983709, 3 h.
The subject of another test is E. cloacae. Format: cell-based, Enterobacter cloacae. To be noted: 50 μM final drug concentration; for fold induction at 50 µM: Enterobacter cloacae, 3 h.
The subject of another test is P. aeruginosa. In kind it is cell-based, Pseudomonas aeruginosa. The settings on record: 50 μM final drug concentration; for fold induction at 50 µM: Pseudomonas aeruginosa, 3 h.
The next test concerns K. pneumoniae. In kind it is cell-based, Klebsiella pneumoniae. To be noted: 50 μM final drug concentration; for fold induction at 50 µM: Klebsiella pneumoniae, 3 h.
The next test deals with E. faecium. In kind it is cell-based, Enterococcus faecium. The settings on record: 50 μM final drug concentration; for fold induction at 50 µM: Enterococcus faecium, 3 h.
The next test deals with E. coli. In kind it is cell-based, Escherichia coli. To be noted: 50 μM final drug concentration; for fold induction at 50 µM: Escherichia coli, 3 h.
The subject of test [2] is S. aureus strain USA300-0114. Format: cell-based, Staphylococcus aureus. To be noted: 50 μM final drug concentration; for fold induction at 50 µM: Staphylococcus aureus, USA300, 3 h.
Setting [3] is: 384-well format, cutoff for positive-scoring molecules 3-fold increase, read-out: AK-based Prestwick Library Screening Results, A. baumannii (increase in extracellular AK activity).
[4] abbreviates: 384-well format, cutoff for positive-scoring molecules 3-fold increase, read-out: AK-based Prestwick Library Screening Results, E. cloacae (increase in extracellular AK activity).
Where [5] appears, read: 384-well format, cutoff for positive-scoring molecules 3-fold increase, read-out: AK-based Prestwick Library Screening Results, P. aeruginosa (increase in extracellular AK activity).
Where [6] appears, read: 384-well format, cutoff for positive-scoring molecules 3-fold increase, read-out: AK-based Prestwick Library Screening Results, K. pneumoniae (increase in extracellular AK activity).
Where [7] appears, read: 384-well format, cutoff for positive-scoring molecules 3-fold increase, read-out: AK-based Prestwick Library Screening Results, E. faecium (increase in extracellular AK activity).
The mark [8] stands for this setting: 384-well format, cutoff for positive-scoring molecules 3-fold increase, read-out: AK-based Prestwick Library Screening Results, E. coli (increase in extracellular AK activity).
The mark [9] stands for this setting: 384-well format, cutoff for positive-scoring molecules 3-fold increase, read-out: AK-based Prestwick Library Screening Results, S. aureus (increase in extracellular AK activity).
The mark [10] stands for this setting: planktonic A. baumannii, cutoff for positive-scoring molecules 3-fold increase, read-out: AK-based Prestwick Library Screening Results, A. baumannii (increase in extracellular AK activity).
The mark [11] stands for this setting: planktonic E. cloacae, cutoff for positive-scoring molecules 3-fold increase, read-out: AK-based Prestwick Library Screening Results, E. cloacae (increase in extracellular AK activity).
[12] abbreviates: planktonic P. aeruginosa, cutoff for positive-scoring molecules 3-fold increase, read-out: AK-based Prestwick Library Screening Results, P. aeruginosa (increase in extracellular AK activity).
The mark [13] stands for this setting: planktonic K. pneumoniae, cutoff for positive-scoring molecules 3-fold increase, read-out: AK-based Prestwick Library Screening Results, K. pneumoniae (increase in extracellular AK activity).
Where [14] appears, read: planktonic E. faecium, cutoff for positive-scoring molecules 3-fold increase, read-out: AK-based Prestwick Library Screening Results, E. faecium (increase in extracellular AK activity).
The mark [15] stands for this setting: planktonic E. coli, cutoff for positive-scoring molecules 3-fold increase, read-out: AK-based Prestwick Library Screening Results, E. coli (increase in extracellular AK activity).
The mark [16] stands for this setting: planktonic S. aureus, cutoff for positive-scoring molecules 3-fold increase, read-out: AK-based Prestwick Library Screening Results, S. aureus (increase in extracellular AK activity).
Setting [17] is: cutoff for positive-scoring molecules 3-fold increase, read-out: AK-based Prestwick Library Screening Results, A. baumannii (fold increase in extracellular AK activity).
Where [18] appears, read: cutoff for positive-scoring molecules 3-fold increase, read-out: AK-based Prestwick Library Screening Results, E. cloacae (fold increase in extracellular AK activity).
Setting [19] is: cutoff for positive-scoring molecules 3-fold increase, read-out: AK-based Prestwick Library Screening Results, P. aeruginosa (fold increase in extracellular AK activity).
Setting [20] is: cutoff for positive-scoring molecules 3-fold increase, read-out: AK-based Prestwick Library Screening Results, K. pneumoniae (fold increase in extracellular AK activity).
Setting [21] is: cutoff for positive-scoring molecules 3-fold increase, read-out: AK-based Prestwick Library Screening Results, E. faecium (fold increase in extracellular AK activity).
Setting [22] is: cutoff for positive-scoring molecules 3-fold increase, read-out: AK-based Prestwick Library Screening Results, E. coli (fold increase in extracellular AK activity).
[23] abbreviates: cutoff for positive-scoring molecules 3-fold increase, read-out: AK-based Prestwick Library Screening Results, S. aureus (fold increase in extracellular AK activity).

Counter-ions that a name gives are not always drawn. Like-named read-outs stand apart in the source and are kept apart here.

Consider `CN1CCc2cc3c(cc2C1O)OCO3` (stereo not drawn) [Hydrastinine hydrochloride], for which the fold induction at 50 µM in test [1] (setting [3]) was found to be 0.9; with E. cloacae (setting [4]), 1.2; in the test on P. aeruginosa (setting [5]), 0.9; in the test with K. pneumoniae (setting [6]), 0.8; with E. faecium (setting [7]), 0.9; in the test on E. coli (setting [8]) it was 1. Moreover, the fold induction at 50 µM in test [2] (setting [9]) stood at 0.7.

Turning to `CC/C(=C(\c1ccccc1)c1ccc(OCCN(C)C)cc1)c1ccccc1` [Tamoxifen citrate], the fold induction at 50 µM in test [1] (planktonic A. baumannii, 384-well, cutoff for positive-scoring molecules 3-fold increase, read-out: AK-based Prestwick Library Screening Results: A. baumannii (increase in extracellular AK activity)) is 6.6; with E. cloacae (planktonic E. cloacae, 384-well, cutoff for positive-scoring molecules 3-fold increase, read-out: AK-based Prestwick Library Screening Results: E. cloacae (increase in extracellular AK activity)) it was 1.3; with P. aeruginosa (planktonic P. aeruginosa, 384-well, cutoff for positive-scoring molecules 3-fold increase, read-out: AK-based Prestwick Library Screening Results: P. aeruginosa (increase in extracellular AK activity)), 1.4; with K. pneumoniae (planktonic K. pneumoniae, 384-well, cutoff for positive-scoring molecules 3-fold increase, read-out: AK-based Prestwick Library Screening Results: K. pneumoniae (increase in extracellular AK activity)) it was 2.1; in the test on E. faecium (planktonic E. faecium, 384-well, cutoff for positive-scoring molecules 3-fold increase, read-out: AK-based Prestwick Library Screening Results: E. faecium (increase in extracellular AK activity)) it was 4; with E. coli (planktonic E. coli, 384-well, cutoff for positive-scoring molecules 3-fold increase, read-out: AK-based Prestwick Library Screening Results: E. coli (increase in extracellular AK activity)) it was 1.9. For the same compound, the fold induction at 50 µM in test [2] (planktonic S. aureus, 384-well, cutoff for positive-scoring molecules 3-fold increase, read-out: AK-based Prestwick Library Screening Results: S. aureus (increase in extracellular AK activity)) turned out to be 2.1.

On to `NC[C@@H]1O[C@H](O[C@H]2[C@@H](O)[C@H](O[C@@H]3[C@@H](O)[C@H](N)C[C@H](N)[C@H]3O[C@H]3O[C@H](CN)[C@@H](O)[C@H](O)[C@H]3N)O[C@@H]2CO)[C@H](N)[C@@H](O)[C@@H]1O.O=S(=O)(O)O` [Neomycin sulfate], for which the “AK-based Prestwick Library Screening Results: A. baumannii (increase in extracellular AK activity)” value in test [1] (planktonic A. baumannii, 384-well, cutoff for positive-scoring molecules 3-fold increase) is recorded as 1.4. Besides, the “AK-based Prestwick Library Screening Results: E. cloacae (increase in extracellular AK activity)” value with E. cloacae (planktonic E. cloacae, 384-well, cutoff for positive-scoring molecules 3-fold increase) was found to be 1.3. In addition, the “AK-based Prestwick Library Screening Results: P. aeruginosa (increase in extracellular AK activity)” value with P. aeruginosa (planktonic P. aeruginosa, 384-well, cutoff for positive-scoring molecules 3-fold increase) is given as 0.9. For the same compound, in the test with K. pneumoniae (planktonic K. pneumoniae, 384-well, cutoff for positive-scoring molecules 3-fold increase), the “AK-based Prestwick Library Screening Results: K. pneumoniae (increase in extracellular AK activity)” value worked out at 1.0. In the test on E. faecium (planktonic E. faecium, 384-well, cutoff for positive-scoring molecules 3-fold increase), the “AK-based Prestwick Library Screening Results: E. faecium (increase in extracellular AK activity)” value turned out to be 1.0. In addition, the “AK-based Prestwick Library Screening Results: E. coli (increase in extracellular AK activity)” value in the test on E. coli (planktonic E. coli, 384-well, cutoff for positive-scoring molecules 3-fold increase) is on record as 1.2. In addition, in test [2] (planktonic S. aureus, 384-well, cutoff for positive-scoring molecules 3-fold increase), the “AK-based Prestwick Library Screening Results: S. aureus (increase in extracellular AK activity)” value worked out at 1.1.

Take `CCN(CC)CCNc1ccc(CO)c2sc3ccccc3c(=O)c12` [Hycanthone]: the fold induction at 50 µM amounted to 0.8 in test [1] (setting [10]); 1.1 in the test with E. cloacae (setting [11]); 0.8 in the test with P. aeruginosa (setting [12]); 0.7 in the test on K. pneumoniae (setting [13]); 1.2 in the test with E. faecium (setting [14]); 0.9 with E. coli (setting [15]). The fold induction at 50 µM in test [2] (setting [16]) came to 0.8.

With `Cc1ccccc1N1C(=O)c2cc(S(N)(=O)=O)c(Cl)cc2NC1C` (stereo not drawn) [Metolazone], the fold induction at 50 µM was 0.8 in test [1] (setting [3]); 1 with E. cloacae (setting [4]); 0.7 with P. aeruginosa (setting [5]); 0.6 in the test on K. pneumoniae (setting [6]); 0.8 with E. faecium (setting [7]); 0.8 with E. coli (setting [8]). In addition, in test [2] (setting [9]), the fold induction at 50 µM is 0.7.

Consider `OCc1cc(C(O)CNCCCCCCOCCCCc2ccccc2)ccc1O` (stereo not drawn) [Salmeterol], for which the fold induction at 50 µM amounted to 1.5 in test [1] (setting [17]); 1.5 in the test with E. cloacae (setting [18]); 1.2 with P. aeruginosa (setting [19]); 1.1 in the test on K. pneumoniae (setting [20]); 1 with E. faecium (setting [21]); 1.4 with E. coli (setting [22]). Besides, the fold induction at 50 µM in test [2] (setting [23]) was determined as 1.9.

Consider Pizotifen malate, for which the “AK-based Prestwick library screening result, A. baumannii (fold increase in extracellular AK activity)” value in test [1] (planktonic A. baumannii, positive cutoff 3-fold increase) amounted to 0.8. Also, the “AK-based Prestwick library screening result, E. cloacae (fold increase in extracellular AK activity)” value in the test on E. cloacae (planktonic E. cloacae, positive cutoff 3-fold increase) was 1.3. The “AK-based Prestwick library screening result, P. aeruginosa (fold increase in extracellular AK activity)” value in the test with P. aeruginosa (planktonic P. aeruginosa, positive cutoff 3-fold increase) is reported as 0.8. Besides, the “AK-based Prestwick library screening result, K. pneumoniae (fold increase in extracellular AK activity)” value with K. pneumoniae (planktonic K. pneumoniae, positive cutoff 3-fold increase) is listed as 0.7. Besides, in the test on E. faecium (planktonic E. faecium, positive cutoff 3-fold increase), the “AK-based Prestwick library screening result, E. faecium (fold increase in extracellular AK activity)” value worked out at 1.0. In addition, the “AK-based Prestwick library screening result, E. coli (fold increase in extracellular AK activity)” value in the test on E. coli (planktonic E. coli, positive cutoff 3-fold increase) amounted to 1.0. The “AK-based Prestwick library screening result, S. aureus (fold increase in extracellular AK activity)” value in test [2] (planktonic S. aureus, positive cutoff 3-fold increase) came out at 0.7.

With `Cc1ccc(C(=O)c2ccc(CC(=O)O)n2C)cc1` [Tolmetin sodium salt dihydrate], the fold induction at 50 µM came out at 0.8 in test [1] (setting [17]); 2 in the test on E. cloacae (setting [18]); 1 with P. aeruginosa (setting [19]); 0.6 in the test with K. pneumoniae (setting [20]); 0.8 in the test on E. faecium (setting [21]); 0.9 with E. coli (setting [22]). Moreover, in test [2] (setting [23]), the fold induction at 50 µM is 0.9.

As to `O=C1CCc2cc(OCCCCc3nnnn3C3CCCCC3)ccc2N1` [Cilostazol], the fold induction at 50 µM in test [1] (setting [10]) was 0.9; in the test with E. cloacae (setting [11]) it was 0.9; with P. aeruginosa (setting [12]), 0.9; in the test on K. pneumoniae (setting [13]), 0.7; in the test with E. faecium (setting [14]) it was 0.9; in the test on E. coli (setting [15]) it was 0.9. Also, the fold induction at 50 µM in test [2] (setting [16]) came to 0.8.
